Source: patent publication US20250195521A1 (Revolution Medicines, Inc., priority 2020, published 2025)
Like-named read-outs stand apart in the source and are kept apart here.

Tests used:
Format in all cases: biochemical
KRAS Q61H = KRAS Q61H (Homo sapiens (Human), UniProt P01116+P62937, Q61H); assay: Ras-Raf disruption/FRET/MOA assay (BRAF RBD, Cyclophilin A)
How it was run: (§1)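 TR-FRET read after 1.5 h with 10 nM anti-His Eu-W1024 and 50 nM anti-GST APC, following 3 h at 25 °C of GMPPNP-loaded His6-Ras (12.5 nM), GST-BRAF RBD (50 nM) and Cyclophilin A (25 μM) with compound from 30 μM final, 10 points, 3-fold. IC50 reported; pH 7.3 HEPES, 100 mM NaCl.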

KRAS G12V = KRAS G12V (Homo sapiens (Human), UniProt P01116+P62937, G12V); assay: as above; conditions: read-out: KRAS G12V FRET IC50
Sequence of KRAS G12V (P01116 other isoform, or with tags, fused parts or gaps G12V): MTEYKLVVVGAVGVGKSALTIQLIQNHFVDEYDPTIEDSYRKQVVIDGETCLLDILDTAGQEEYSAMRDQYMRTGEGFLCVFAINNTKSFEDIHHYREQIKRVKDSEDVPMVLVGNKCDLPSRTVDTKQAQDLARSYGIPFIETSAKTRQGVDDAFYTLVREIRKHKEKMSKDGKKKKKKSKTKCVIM
Sequence of KRAS G12V (P62937 whole entry): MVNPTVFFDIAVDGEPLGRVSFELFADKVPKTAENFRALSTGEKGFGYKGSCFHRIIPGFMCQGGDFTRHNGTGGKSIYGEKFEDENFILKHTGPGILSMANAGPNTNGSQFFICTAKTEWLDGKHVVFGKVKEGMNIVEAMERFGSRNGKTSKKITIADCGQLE
How it was run: as §1

NRAS WT = NRAS WT (Homo sapiens (Human), UniProt P01111+P62937); assay: as above
Sequence of NRAS WT (P01111 whole entry): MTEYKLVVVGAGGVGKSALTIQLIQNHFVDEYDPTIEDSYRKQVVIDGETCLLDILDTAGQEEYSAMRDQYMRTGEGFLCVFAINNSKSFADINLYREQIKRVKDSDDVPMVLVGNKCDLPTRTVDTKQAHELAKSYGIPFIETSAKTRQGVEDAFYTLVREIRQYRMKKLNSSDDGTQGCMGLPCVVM
Sequence of NRAS WT (P62937 whole entry): as the sequence (P62937 whole entry) above
How it was run: as §1

KRAS G13D = KRAS G13D (Homo sapiens (Human), UniProt P01116+P62937, G13D); assay: as above; conditions: read-out: KRAS G13D FRET data IC50
Sequence of KRAS G13D (P01116 other isoform, or with tags, fused parts or gaps G13D): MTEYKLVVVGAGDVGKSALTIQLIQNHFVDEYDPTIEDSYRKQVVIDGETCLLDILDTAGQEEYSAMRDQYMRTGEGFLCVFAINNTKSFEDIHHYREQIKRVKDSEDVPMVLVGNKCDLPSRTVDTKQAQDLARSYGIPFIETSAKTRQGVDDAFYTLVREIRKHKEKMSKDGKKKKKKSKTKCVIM
Sequence of KRAS G13D (P62937 whole entry): as the sequence (P62937 whole entry) above
How it was run: as §1

NRAS Q61K = NRAS Q61K (Homo sapiens (Human), UniProt P01111+P62937, Q61K); assay: as above
Sequence of NRAS Q61K (P01111 whole entry Q61K): as the sequence (P01111 whole entry) above, with Q61K counted along it
Sequence of NRAS Q61K (P62937 whole entry): as the sequence (P62937 whole entry) above
How it was run: as §1

KRAS G12S = KRAS G12S (Homo sapiens (Human), UniProt P01116+P62937, G12S); assay: as above; conditions: read-out: KRAS G12S FRET IC50
Sequence of KRAS G12S (P01116 other isoform, or with tags, fused parts or gaps G12S): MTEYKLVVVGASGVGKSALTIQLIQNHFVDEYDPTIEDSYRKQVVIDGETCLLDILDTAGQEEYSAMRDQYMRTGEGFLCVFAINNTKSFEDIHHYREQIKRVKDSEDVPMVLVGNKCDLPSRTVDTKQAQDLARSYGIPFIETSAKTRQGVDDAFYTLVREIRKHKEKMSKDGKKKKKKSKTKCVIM
Sequence of KRAS G12S (P62937 whole entry): as the sequence (P62937 whole entry) above
How it was run: as §1

KRAS G12D = KRAS G12D (Homo sapiens (Human), UniProt P01116+P62937, G12D); assay: as above; conditions: read-out: KRAS G12D FRET IC50
Sequence of KRAS G12D (P01116 other isoform, or with tags, fused parts or gaps G12D): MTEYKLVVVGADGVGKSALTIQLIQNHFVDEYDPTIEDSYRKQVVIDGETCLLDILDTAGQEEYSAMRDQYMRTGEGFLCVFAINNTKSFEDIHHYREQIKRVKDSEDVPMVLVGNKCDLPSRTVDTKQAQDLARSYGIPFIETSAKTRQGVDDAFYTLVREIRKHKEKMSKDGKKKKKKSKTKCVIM
Sequence of KRAS G12D (P62937 whole entry): as the sequence (P62937 whole entry) above
How it was run: as §1

NRAS G12C = NRAS G12C (Homo sapiens (Human), UniProt P01111+P62937, G12C); assay: as above; conditions: read-out: NRAS G12C FRET data IC50
Sequence of NRAS G12C (P01111 whole entry G12C): as the sequence (P01111 whole entry) above, with G12C counted along it
Sequence of NRAS G12C (P62937 whole entry): as the sequence (P62937 whole entry) above
How it was run: as §1

NRAS Q61R = NRAS Q61R (Homo sapiens (Human), UniProt P01111+P62937, Q61R); assay: as above
Sequence of NRAS Q61R (P01111 whole entry Q61R): as the sequence (P01111 whole entry) above, with Q61R counted along it
Sequence of NRAS Q61R (P62937 whole entry): as the sequence (P62937 whole entry) above
How it was run: as §1

KRAS G13C = KRAS G13C (Homo sapiens (Human), UniProt P01116+P62937, G13C); assay: as above; conditions: read-out: KRAS G13C FRET IC50
Sequence of KRAS G13C (P01116 other isoform, or with tags, fused parts or gaps G13C): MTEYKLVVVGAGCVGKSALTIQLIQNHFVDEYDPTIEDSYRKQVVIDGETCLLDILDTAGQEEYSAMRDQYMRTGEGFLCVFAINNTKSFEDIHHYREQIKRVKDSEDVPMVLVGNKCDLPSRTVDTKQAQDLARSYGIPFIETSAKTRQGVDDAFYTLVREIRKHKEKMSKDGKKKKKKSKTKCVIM
Sequence of KRAS G13C (P62937 whole entry): as the sequence (P62937 whole entry) above
How it was run: as §1

KRAS G12C = KRAS G12C (Homo sapiens (Human), UniProt P01116+P62937, G12C); assay: as above; conditions: read-out: KRAS G12C FRET IC50
Sequence of KRAS G12C (P01116-2 other isoform, or with tags, fused parts or gaps G12C): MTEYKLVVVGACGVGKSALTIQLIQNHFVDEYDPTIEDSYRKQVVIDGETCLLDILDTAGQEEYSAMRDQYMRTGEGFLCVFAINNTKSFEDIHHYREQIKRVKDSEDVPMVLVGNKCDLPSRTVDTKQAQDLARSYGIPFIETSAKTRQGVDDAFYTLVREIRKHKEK
Sequence of KRAS G12C (P62937 whole entry): as the sequence (P62937 whole entry) above
How it was run: as §1

[1] = target: K-Ras G12C(GMP-PNP) binding to BRAF RBD (Homo sapiens (Human), UniProt P01116+P62937, G12C); assay: Disruption of BRAF RBD interaction with K-Ras (FRET / MOA assay), K-Ras G12C
Sequence of K-Ras G12C(GMP-PNP) binding to BRAF RBD (P01116 other isoform, or with tags, fused parts or gaps G12C): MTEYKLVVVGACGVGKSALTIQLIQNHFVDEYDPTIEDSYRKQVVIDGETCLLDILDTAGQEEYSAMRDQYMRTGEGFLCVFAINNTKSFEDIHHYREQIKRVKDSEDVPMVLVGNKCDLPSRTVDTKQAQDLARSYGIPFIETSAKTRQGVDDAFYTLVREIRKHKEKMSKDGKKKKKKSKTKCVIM
Sequence of K-Ras G12C(GMP-PNP) binding to BRAF RBD (P62937 whole entry): as the sequence (P62937 whole entry) above
How it was run: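 TR-FRET readout: after 3 h compound incubation at 25 °C, anti-His Eu and anti-GST allophycocyanin (10 and 50 nM final) added for a further 1.5 h. Dilution series was 10-point, 3-fold, top 30 μM final. Ras–cyclophilin A ternary complex formation blocks the BRAF RBD interaction; IC50 derived from reduced FRET ratio relative to DMSO.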

Sequence of KRAS Q61H (P01116 other isoform, or with tags, fused parts or gaps Q61H): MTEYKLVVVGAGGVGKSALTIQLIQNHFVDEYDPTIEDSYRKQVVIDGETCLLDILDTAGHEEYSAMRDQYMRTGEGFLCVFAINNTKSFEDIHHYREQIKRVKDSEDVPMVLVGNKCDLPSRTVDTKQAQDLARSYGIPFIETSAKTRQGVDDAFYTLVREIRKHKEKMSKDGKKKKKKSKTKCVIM
Sequence of KRAS Q61H (P62937 whole entry): as the sequence (P62937 whole entry) above

| IC50 (KRAS Q61H) [nM] | IC50 (KRAS G12V) [nM] | IC50 (NRAS WT) [nM] | IC50 (KRAS G13D) [nM] | IC50 (NRAS Q61K) [nM] | IC50 (KRAS G12S) [nM] | IC50 (KRAS G12D) [nM] | IC50 (NRAS G12C) [nM] | IC50 (NRAS Q61R) [nM] | IC50 (KRAS G13C) [nM] | IC50 (KRAS G12C) [nM] | IC50 ([1]; read-out: KRAS G12C FRET IC50) [nM] | IC50 ([1]; KRAS G12C FRET IC50) [nM] | SMILES |
| --- | --- | --- | --- | --- | --- | --- | --- | --- | --- | --- | --- | --- | --- |
| 100 to 1000 | 1000 to 10000 | 1000 to 10000 | 1000 to 10000 | 100 to 1000 | 1000 to 10000 | 1000 to 10000 | 100 to 1000 | 1000 to 10000 | 100 to 1000 | 100 to 1000 |  |  | CCn1c(-c2cccnc2[C@H](C)OC)c2c3cc(ccc31)-c1csc(n1)C[C@H](NC(=O)[C@H](C(C)C)N1C[C@@H](c3ccccc3)CC1=O)C(=O)N1CCC[C@H](N1)C(=O)OCC(C)(C)C2 (single isomer, unassigned) [Compound A544] |
| 100 to 1000 | 1000 to 10000 | 1000 to 10000 | 1000 to 10000 | 1000 to 10000 | 1000 to 10000 | > 10000 | 1000 to 10000 | 1000 to 10000 | 1000 to 10000 | 1000 to 10000 |  |  | CCn1c(-c2cccnc2[C@H](C)OC)c2c3cc(ccc31)-c1cccc(c1)C[C@H](NC(=O)[C@H](C(C)C)N(C)C(C)=O)C(=O)N1CCC[C@H](N1)C(=O)OCC(C)(C)C2 [Compound A61] |
| 10 to 100 | 100 to 1000 | 10 to 100 | 100 to 1000 |  | 10 to 100 | 100 to 1000 | 10 to 100 |  | 100 to 1000 | 10 to 100 | < 10 |  | CCn1c(-c2cccnc2[C@H](C)OC)c2c3cc(ccc31)-c1csc(n1)C[C@H](NC(=O)[C@H](C(C)C)N(C)C(=O)N1CCN(C(C)=O)CC1)C(=O)N1CCC[C@H](N1)C(=O)OCC(C)(C)C2 [Compound A291] |
| 10 to 100 | 100 to 1000 | 10 to 100 | 10 to 100 |  | 10 to 100 | 100 to 1000 | 10 to 100 | 100 to 1000 | 10 to 100 | 10 to 100 | 100 to 1000 |  | CCn1c(-c2cccnc2[C@H](C)OC)c2c3cc(ccc31)-c1cc(O)cc(c1)C[C@H](NC(=O)[C@H](C(C)C)N(C)C(=O)C1CCC3(CCOC3)O1)C(=O)N1CCC[C@H](N1)C(=O)OCC(C)(C)C2 (stereo partly drawn) [Compound A409] |
| 10 to 100 | 100 to 1000 | 100 to 1000 | 100 to 1000 |  | 100 to 1000 | 100 to 1000 | 10 to 100 | 100 to 1000 | 100 to 1000 | 10 to 100 | 10 to 100 |  | CCn1c(-c2cccnc2[C@H](C)OC)c2c3cc(ccc31)-c1csc(n1)C[C@H](NC(=O)[C@H](C(C)C)N(C)C(=O)N1C[C@@H]3OCCN(C)[C@@H]3C1)C(=O)N1CCC[C@H](N1)C(=O)OCC(C)(C)C2 [Compound A444] |
| 10 to 100 | 100 to 1000 | 10 to 100 | 100 to 1000 |  | 100 to 1000 | 100 to 1000 | 10 to 100 |  | 100 to 1000 | 10 to 100 |  | 10 to 100 | CCn1c(-c2cc(N3CCN(C)CC3)cnc2[C@H](C)OC)c2c3cc(ccc31)-c1csc(n1)C[C@H](NC(=O)[C@H](C(C)C)N(C)C(=O)N1CC(OC)C1)C(=O)N1CCC[C@H](N1)C(=O)OCC(C)(C)C2 [Compound A466] |
| 10 to 100 | 100 to 1000 | 100 to 1000 | 1000 to 10000 |  | 100 to 1000 | 1000 to 10000 | 100 to 1000 | 100 to 1000 | 100 to 1000 | 100 to 1000 | 100 to 1000 |  | CCn1c(-c2cccnc2[C@H](C)OC)c2c3cc(ccc31)-c1csc(n1)C[C@H](NC(=O)[C@H](C(C)C)N(C)C(=O)N1CCC13CCS(=O)(=O)CC3)C(=O)N1CCC[C@H](N1)C(=O)OCC(C)(C)C2 [Compound A530] |
| 10 to 100 | 100 to 1000 | 10 to 100 | 100 to 1000 |  | 100 to 1000 | 100 to 1000 | 10 to 100 | 100 to 1000 | 100 to 1000 | 10 to 100 | 10 to 100 |  | CCn1c(-c2cccnc2[C@H](C)OC)c2c3cc(ccc31)-c1csc(n1)C[C@H](NC(=O)[C@H](C(C)C)N(C)C(=O)N1CC([C@H](C)COC)C1)C(=O)N1CCC[C@H](N1)C(=O)OCC(C)(C)C2 [Compound A533] |
| 10 to 100 | 100 to 1000 | 100 to 1000 | 100 to 1000 |  | 100 to 1000 | 100 to 1000 | 10 to 100 | 100 to 1000 | 100 to 1000 | 10 to 100 | 10 to 100 |  | CCn1c(-c2cccnc2[C@H](C)OC)c2c3cc(ccc31)-c1csc(n1)C[C@H](NC(=O)[C@H](C(C)C)N(C)C(=O)N1CC([C@H](C)N(C)C)C1)C(=O)N1CCC[C@H](N1)C(=O)OCC(C)(C)C2 [Compound A538] |
| 10 to 100 | 10 to 100 | 10 to 100 | 10 to 100 |  | 10 to 100 | 10 to 100 | 10 to 100 |  | 10 to 100 | 10 to 100 | 10 to 100 |  | CCn1c(-c2cccnc2[C@H](C)OC)c2c3cc(ccc31)-c1cc(O)cc(c1)C[C@H](NC(=O)[C@H](C(C)C)N(C)C(=O)[C@@H]1OCC[C@H]1c1ccccc1)C(=O)N1CCC[C@H](N1)C(=O)OCC(C)(C)C2 [Compound A584] |

| SMILES | IC50 (KRAS Q61H) [nM] | IC50 (KRAS G12V) [nM] | IC50 (NRAS WT) [nM] | IC50 (KRAS G13D) [nM] | IC50 (NRAS Q61K) [nM] | IC50 (KRAS G12S) [nM] | IC50 (KRAS G12D) [nM] | IC50 (NRAS G12C) [nM] | IC50 (NRAS Q61R) [nM] | IC50 (KRAS G13C) [nM] | IC50 (KRAS G12C) [nM] | IC50 ([1]; read-out: KRAS G12C FRET IC50) [nM] | IC50 ([1]; KRAS G12C FRET IC50) [nM] |
| --- | --- | --- | --- | --- | --- | --- | --- | --- | --- | --- | --- | --- | --- |
| CCn1c(-c2cccnc2[C@H](C)OC)c2c3cc(ccc31)-c1csc(n1)C[C@H](NC(=O)[C@H](C(C)C)N(C)C(=O)[C@H]1CCN(S(C)(=O)=O)C1)C(=O)N1CCC[C@H](N1)C(=O)OCC(C)(C)C2 [Compound A237] |  | 1000 to 10000 | 1000 to 10000 | > 10000 | 1000 to 10000 | 1000 to 10000 | > 10000 | 1000 to 10000 | 1000 to 10000 | 1000 to 10000 | 1000 to 10000 | 10 to 100 |  |
| CCn1c(-c2cccnc2[C@H](C)OC)c2c3cc(ccc31)-c1csc(n1)[C@@H](OCC1CCN(C)CC1)[C@H](NC(=O)[C@H]1C[C@@H]1C)C(=O)N1CCC[C@H](N1)C(=O)OCC(C)(C)C2 [Compound A451, (1S,2S)—N-((6^3S,3S,4S,Z)-1^1-ethyl-1^2-(2-((S)-1-methoxyethyl)pyridin-3-yl)-10,10-dimethyl-3-((1-methylpiperidin-4-yl)methoxy)-5,7-dioxo-6^1,6^2,6^3,6^4,6^5,6^6-hexahydro-1^1H-8-oxa-2 (4,2)-thiazola-1 (5,3)-indola-6 (1,3)-pyridazinacycloundecaphane-4-yl)-2-methylcyclopropane-1-carboxamide] | 100 to 1000 | 100 to 1000 |  |  |  | 100 to 1000 | 1000 to 10000 |  |  | 100 to 1000 | 100 to 1000 | 100 to 1000 |  |
| CCOC1c2nc(cs2)-c2ccc3c(c2)c(c(-c2cc(C4CC5COCC(C4)N5C4CC4)cnc2C(C)OC)n3CC)CC(C)(C)COC(=O)C2CCCN(N2)C(=O)C1NC(=O)C1C(C)C1C [Compound A483, (1r,2R,3S)—N-((6^3S,3S,4S,Z)-12-(5-((1R,5S,7s)-9-cyclopropyl-3-oxa-9-azabicyclo[3.3.1]nonan-7-yl)-2-((S)-1-methoxyethyl)pyridin-3-yl)-3-ethoxy-1^1-ethyl-10,10-dimethyl-5,7-dioxo-6^1,6^2,6^3,6^4,6^5,6^6-hexahydro-1^1H-8-oxa-2 (4,2)-thiazola-1 (5,3)-indola-6 (1,3)-pyridazinacycloundecaphane-4-yl)-2,3-dimethylcyclopropane-1-carboxamide] | 10 to 100 | 100 to 1000 |  |  |  | 10 to 100 | 10 to 100 |  |  | 100 to 1000 | 10 to 100 | 100 to 1000 |  |
